Assay results: paper PMC12903857

Columns and labels:
[1] = biological target: T1, 14-3-3σ/C-RAF259 (Homo sapiens, UniProt P31947); assay: Intact mass spectrometry assay with C-RAF259 phospho-peptide; type: binding; design: full-length for mass spectrometry and fluorescence anisotropy assays; made in house; host or cells: E. coli Rosetta 2(DE3)pLysS (14-3-3σ); peptides from Elim Biopharmaceuticals; details: 1 μM compound, 100 nM 14-3-3σ, 18 µM peptide
Procedure: (§1) In analogy to our previous work, two orthogonal assays were used for screening (Figure S2). […] Dose responses of compounds were performed in the absence and presence of the C-RAF259 phospho-peptide to distinguish between neutral binders and cooperative molecular glues. The experiment was performed as a time course, with measurements every 8 h, after an 1 h incubation. Additionally, the compounds were tested in a fluorescence anisotropy (FA) assay in the presence of the 5-carboxyfluorescein-(FAM)-labeled C-RAF259 peptide. […] The full dose–response data for all compounds are available in the SI (Tables S2–S5, Figures S5–S8, Figures S15–S18, Figures S25–S32, Figures S37–S39). The dose–response data from both assays were also visually compared in the form of bar graphs. […] For FA experiments, the EC50 values from the overnight measurement were calculated and plotted as bar graphs showing the […] log EC50 value (pEC50). Compounds acting as MGs were expected to show increases in both types of bar graphs.
(§2) transferred in the assay plates.
(§3) The reacton mixtures were incubated
(§4) dispensed in the assay plates.
(§5) incubaton at room temperature .

[2] = biological target: T2, 14-3-3σ (Homo sapiens, UniProt P31947); assay: Intact mass spectrometry assay, apo (no peptide); type: binding; design: full-length for mass spectrometry and fluorescence anisotropy assays; made in house; host or cells: E. coli Rosetta 2(DE3)pLysS, pPROEX HTb vector; details: 1 μM compound, 100 nM 14-3-3σ
T2 sequence (P31947 1-248): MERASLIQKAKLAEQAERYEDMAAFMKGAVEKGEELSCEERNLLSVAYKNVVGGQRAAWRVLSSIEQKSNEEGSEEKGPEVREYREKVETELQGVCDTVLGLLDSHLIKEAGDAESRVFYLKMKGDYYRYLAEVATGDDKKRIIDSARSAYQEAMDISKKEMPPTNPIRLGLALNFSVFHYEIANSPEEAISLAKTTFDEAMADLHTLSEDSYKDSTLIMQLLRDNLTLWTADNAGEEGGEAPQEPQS
Procedure: as §1, §2, §3, §4, §5

[3] = biological target: T1, 14-3-3σ/C-RAF259; assay: Fluorescence anisotropy (FA) compound titration; type: binding; details: 10 nM C-RAF259-FAM 10-mer, 5 μΜ 14-3-3σ, overnight; read-out: Compound titrations EC50 value C-RAF259
Procedure: as §1, §2, §3, §4, §5

[4] = biological target: T1, 14-3-3σ/C-RAF259; assay: FA protein titration, C-RAF259 peptide; details: appKd DMSO / appKd compound

% bound, C-RAF259 (11mer), 1h [1] [%]	% bound, C-RAF259 (11mer), 8h [1] [%]	% bound, C-RAF259 (11mer), 16h [1] [%]	% bound, C-RAF259 (11mer), 24h [1] [%]	% bound, APO, 1h [2] [%]	% bound, APO, 8h [2] [%]	% bound, APO, 16h [2] [%]	% bound, APO, 24h [2] [%]	EC50 [3] [µM]	Fold stabilization (100 µM compound), C-RAF259 (10mer) [4] [fold]	SMILES
12.1	32.8	47.8	64.4	1	1.5	2.9	4.3	3 ± 1	22	O=C(CCl)NCC1CCN(S(=O)(=O)c2ccc(Cl)cc2)CC1 [Compound 12]
28	43.9	61.9	83.3	0	0.9	2.9	4.4	2 ± 1	39	O=C(CCl)NCC1CCN(S(=O)(=O)c2ccc(Br)c(F)c2F)CC1 [Compound 38]
–	38.1	59.1	81.4	0.9	1.9	2.5	3.8	8 ± 1	2	O=C(CCl)NCC1CCN(S(=O)(=O)c2ccc(Cl)c(C(F)(F)F)c2)CC1 [Compound 31]
20.6	41.1	69.5	91.7	0	0.9	2.9	4.5	25 ± 2	18	O=C(CCl)NCC1CCN(S(=O)(=O)c2ccc(Br)cc2F)CC1 [Compound 36]
20.5	41.3	69.5	91.3	0	0.5	2.5	6.5	13 ± 3	14	O=C(CCl)NCC1CCN(S(=O)(=O)c2ccc(OC(F)(F)F)cc2)CC1 [Compound 19]
7.3	13.7	26.7	51.8	0	0.5	0.5	1.5	14 ± 1	21	Cc1ccc(S(=O)(=O)N2CCC(CNC(=O)CCl)CC2)cc1 [Compound 24]
2.9	6.5	10.7	32.2	–	2.9	4.4	7.4	5 ± 1	9	O=Cc1ccc(S(=O)(=O)N2CCC(CNC(=O)CCl)CC2)cc1 [Compound 21]
8.2	17.9	28.4	46.8	0	0.9	6.5	12.7	17 ± 1	15	O=C(CCl)NCC1CCN(S(=O)(=O)c2ccc(C(F)(F)F)cc2)CC1 [Compound 18]
6.9	15	26	50.3	0	1.5	4.7	6.9	17 ± 3	4	O=C(CCl)NCC1CCN(S(=O)(=O)c2ccc(F)cc2)CC1 [Compound 11]
25.8	39.4	49	84	0.5	1.9	4.7	8.2	11 ± 1	49	CC1(CNC(=O)CCl)CCN(S(=O)(=O)c2ccc(Br)c(F)c2)CC1 [Compound 46]
37.1	68	80.9	83.3	5.2	13.3	21.8	36.8	78 ± 7	–	O=C(CCl)N1CC2CCC1CC2NS(=O)(=O)c1ccc(Br)c(F)c1 (stereo not shown) [Compound 61]
0.9	2.9	5.6	14.1	0	1.5	2.5	4.3	> 1000	–	O=C(CCl)NCCCC1CCN(S(=O)(=O)c2ccc(Cl)cc2)CC1 [Compound 13]
6.9	14.1	27.5	50.3	1	–	3.8	5.2	> 150	–	O=C(CCl)NCC1CCN(S(=O)(=O)c2ccc(F)cc2F)CC1 [Compound 27]
1.9	2.9	12.1	31	0	1.5	1.5	3.8	> 1000	–	O=C(CCl)NCc1ccc(NS(=O)(=O)c2ccc(Br)c(F)c2)cc1 [Compound 73]
4.7	7.4	9.9	20.9	1.9	2.5	3	15	82 ± 6	–	O=C(CCl)NCC1CCN(S(=O)(=O)c2ccc(Cl)nc2)CC1 [Compound 14]

SMILES	% bound, C-RAF259 (11mer), 1h [1] [%]	% bound, C-RAF259 (11mer), 8h [1] [%]	% bound, C-RAF259 (11mer), 16h [1] [%]	% bound, C-RAF259 (11mer), 24h [1] [%]	% bound, APO, 1h [2] [%]	% bound, APO, 8h [2] [%]	% bound, APO, 16h [2] [%]	% bound, APO, 24h [2] [%]	EC50 [3] [µM]	Fold stabilization (100 µM compound), C-RAF259 (10mer) [4] [fold]
O=C(CCl)NCC1CCN(S(=O)(=O)Cc2ccc(F)cc2)CC1 [Compound 7]	1.5	1.5	2.5	4.7	1	1.9	1.9	2.9	> 1000	–
O=C(CCl)NCC1CCN(S(=O)(=O)Cc2ccc(Cl)cc2)CC1 [Compound 9]	0	0.5	2.9	3.2	0	0	1.5	1.9	> 1000	–
